Columns and labels:
Huh-7 [1] = test: Antiproliferative activity against human Huh-7 cells assessed as inhibition of cell growth measured after 72 hrs by MTT assay; type: functional, cell-based; settings: Huh-7, 72 h
HCCLM9 = test: Antiproliferative activity against human HCCLM9 cells assessed as inhibition of cell growth measured after 72 hrs by MTT assay; type: functional, cell-based; settings: HCCLM9, 72 h
SK-HEP1 = test: Antiproliferative activity against human SK-HEP1 cells assessed as inhibition of cell growth measured after 72 hrs by MTT assay; type: functional, cell-based; settings: SK-HEP1, 72 h
HepG2 = test: Antiproliferative activity against human HepG2 cells assessed as inhibition of cell growth measured after 72 hrs by MTT assay; type: functional, cell-based; settings: HepG2, 72 h
Huh-7 [2] = test: Antitumor activity against human Huh-7 cells xenografted in BALB/c mouse assessed as tumor growth inhibition at 15 mg/kg, ip qd measured after 14 days; type: functional; settings: Huh-7, 336 h, time 14 day, read-out: TGI

COc1ccccc1/C=C/c1nccc2ccccc12
IC50 (Huh-7 [1]): 23.9 µM | IC50 (HCCLM9): 37.6 µM | IC50 (SK-HEP1): 37.6 µM | IC50 (HepG2): 26.8 µM

Oc1ccccc1/C=C/c1nccc2ccccc12
IC50 (Huh-7 [1]): 6.07 µM | IC50 (HCCLM9): 13.6 µM | IC50 (SK-HEP1): 17.1 µM | IC50 (HepG2): 8.92 µM

N#Cc1ccccc1/C=C/c1nccc2ccccc12
IC50 (Huh-7 [1]): 4.52 µM | IC50 (HCCLM9): 10.8 µM | IC50 (SK-HEP1): 11.7 µM | IC50 (HepG2): 17.4 µM

CNC(=O)c1cc(Oc2ccc(NC(=O)Nc3ccc(Cl)c(C(F)(F)F)c3)cc2)ccn1 [SORAFENIB]
IC50 (Huh-7 [1]): 9.48 µM | IC50 (HCCLM9): 9.21 µM | IC50 (SK-HEP1): 8.63 µM | IC50 (HepG2): 9.03 µM | inhibition in vivo at 15 mg/kg (Huh-7 [2]): 77%

Nc1cccc(/C=C/c2nccc3ccccc23)c1
IC50 (Huh-7 [1]): 14.1 µM | IC50 (HCCLM9): 30.9 µM | IC50 (SK-HEP1): > 40 µM | IC50 (HepG2): 8.66 µM

C#Cc1ccc(/C=C/c2nccc3ccccc23)cc1
IC50 (Huh-7 [1]): 12.9 µM | IC50 (HCCLM9): > 40 µM | IC50 (SK-HEP1): > 40 µM | IC50 (HepG2): > 40 µM

Oc1ccc(/C=C/c2nccc3ccccc23)cc1
IC50 (Huh-7 [1]): 11.9 µM | IC50 (HCCLM9): 29.9 µM | IC50 (SK-HEP1): > 40 µM | IC50 (HepG2): > 40 µM

COc1cccc(/C=C/c2nccc3ccccc23)c1
IC50 (Huh-7 [1]): 15.1 µM | IC50 (HCCLM9): 20.4 µM | IC50 (SK-HEP1): 33 µM | IC50 (HepG2): 10.8 µM

Nc1ccccc1/C=C/c1nccc2ccccc12
IC50 (Huh-7 [1]): > 40 µM | IC50 (HCCLM9): > 40 µM | IC50 (SK-HEP1): 26.1 µM | IC50 (HepG2): 25.3 µM

Nc1ccc(/C=C/c2nccc3ccccc23)cc1
IC50 (Huh-7 [1]): 17.3 µM | IC50 (HCCLM9): 16.1 µM | IC50 (SK-HEP1): > 40 µM | IC50 (HepG2): 23.4 µM

N#Cc1cccc(/C=C/c2nccc3ccccc23)c1
IC50 (Huh-7 [1]): 12.2 µM | IC50 (HCCLM9): > 40 µM | IC50 (SK-HEP1): > 40 µM | IC50 (HepG2): > 40 µM

O=c1[nH]cc(F)c(=O)[nH]1 [FLUOROURACIL]
IC50 (Huh-7 [1]): 8.98 µM | IC50 (HCCLM9): 27.2 µM | IC50 (SK-HEP1): > 40 µM | IC50 (HepG2): 29.4 µM

N#Cc1ccc(/C=C/c2nccc3ccccc23)cc1
IC50 (Huh-7 [1]): 5.61 µM | IC50 (HCCLM9): 30.7 µM | IC50 (SK-HEP1): > 40 µM | IC50 (HepG2): > 40 µM

Oc1cccc(/C=C/c2nccc3ccccc23)c1
IC50 (Huh-7 [1]): 24.7 µM | IC50 (HCCLM9): > 40 µM | IC50 (SK-HEP1): > 40 µM | IC50 (HepG2): 20.4 µM

CC(=O)Oc1ccc(/C=C/c2nccc3ccccc23)cc1
IC50 (Huh-7 [1]): 15.4 µM | IC50 (HCCLM9): 35.1 µM | IC50 (SK-HEP1): 23.4 µM | IC50 (HepG2): 20.6 µM

C#Cc1ccccc1/C=C/c1nccc2ccccc12
IC50 (Huh-7 [1]): 24.8 µM | IC50 (HCCLM9): > 40 µM | IC50 (SK-HEP1): 39.2 µM | IC50 (HepG2): 31 µM

C(=C\c1nccc2ccccc12)/c1ccc(-c2ccccc2)cc1
IC50 (Huh-7 [1]): > 40 µM | IC50 (HCCLM9): > 40 µM | IC50 (SK-HEP1): > 40 µM | IC50 (HepG2): > 40 µM

Oc1ccc(/C=C/c2cc(O)cc(O)c2)cc1 [RESVERATROL]
IC50 (Huh-7 [1]): > 40 µM | IC50 (HCCLM9): > 40 µM | IC50 (SK-HEP1): > 40 µM | IC50 (HepG2): > 40 µM

CC(=O)Oc1cccc(/C=C/c2nccc3ccccc23)c1
IC50 (Huh-7 [1]): 11.6 µM | IC50 (HCCLM9): 28.6 µM | IC50 (SK-HEP1): 14.3 µM | IC50 (HepG2): 14.5 µM

COc1ccc(/C=C/c2nccc3ccccc23)cc1
IC50 (Huh-7 [1]): 15.8 µM | IC50 (HCCLM9): > 40 µM | IC50 (SK-HEP1): > 40 µM | IC50 (HepG2): 18.1 µM

Reference: ChEMBL document CHEMBL5370544, “Design, synthesis, and biological evaluation of 1-styrenyl isoquinoline derivatives for anti-hepatocellular carcinoma activity and effect on mitochondria” (Eur J Med Chem, 2023)
